Test results taken from patent US20080318957A1, “POLYBASIC BACTERIAL EFFLUX PUMP INHIBITORS AND THERAPEUTIC USES THEREOF” (priority 2007, published 2008).

Tested on: strain of P. aeruginosa, PAM1723, overexpressing the MexAB-OprM efflux pump
Assay: checkerboard assay, levofloxacin potentiating activity (broth microdilution)
Type: cell-based
Conditions: lowest inhibitor concentration giving antibacterial activity with levofloxacin at 1/32 of its MIC; MHB, 20 h, 35° C.
Experimental: All EPI compounds were readily soluble in water and stock solutions were prepared at a final concentration of 10 mg/ml. Stock solutions were further diluted, according to the needs of the particular assay, in Mueller Hinton Broth (MHB). Stock solution was stored at −80° C.
The checkerboard assay was performed in microtiter plates. […] EPIs were diluted in the y-axis, each row containing a single concentration of an EPI. The result of these manipulations was that each well of the microtiter plate contained a unique combination of concentrations of the two agents. The assay was performed in MHB with a final bacterial inoculum of 5 times 10^5 CFU/ml (from an early-log phase culture). Microtiter plates were incubated during 20 h at 35° C. and were read using a microtiterplate reader (Molecular Devices) at 650 nm as well as visual observation using a microtiter plate-reading mirror.

| SMILES | MPC32 (Minimum Potentiating Concentration) |
| --- | --- |
| NCCN(CCN)C(=O)CC[C@H](N)C(=O)N[C@H](Cc1ccc(C(F)(F)F)cc1)C(=O)Nc1cnc2ccccc2c1 [Compound 1, 3-[(1S)-3-[bis(2-azaniumylethyl)carbamoyl]-1-{[(1R)-1-carbamoyl-2-[4-(trifluoromethyl)phenyl]ethyl]carbamoyl}propan-1-aminium]quinolin-1-ium tetrachloride] | 0.6 µg/mL |
| NCCN(CCN)C(=O)C[C@H](N)C(=O)N[C@@H](CCc1ccccc1)C(=O)Nc1cnc2ccccc2c1 [Compound 2] | 5 µg/mL |
| NCCN(CCN)C(=O)CC[C@H](N)C(=O)N[C@H](C(=O)Nc1cnc2ccccc2c1)[C@H](O)c1ccc(C(F)(F)F)cc1 [Compound 3, 3-[(1S)-3-[bis(2-azaniumylethyl)carbamoyl]-1-{[(1S,2R)-1-carbamoyl-2-hydroxy-2-[4-(trifluoromethyl)phenyl]ethyl]carbamoyl]propan-1-aminium]quinolin-1-ium tetrachloride] | >10 µg/mL |
| NCCN(CCN)C(=O)CC[C@H](N)C(=O)N/C(=C/c1ccc(C(F)(F)F)cc1)C(=O)Nc1cnc2ccccc2c1 [Compound 4, 3-[(1S)-3-[bis(2-azaniumylethyl)carbamoyl]-1-{[(1E)-1-carbamoyl-2-[4-(trifluoromethyl)phenyl]eth-1-en-1-yl]carbamoyl}propan-1-aminium]quinolin-1-ium tetrachloride] | 2.5 µg/mL |
| CN(C(=O)[C@@H](N)CCC(=O)N(CCN)CCN)[C@@H](Cc1ccc(C(F)(F)F)cc1)C(=O)Nc1cnc2ccccc2c1 [Compound 5, 3-[(1S)-3-[bis(2-azaniumylethyl)carbamoyl]-1-{[(1S)-1-carbamoyl-2-[4-(trifluoromethyl)phenyl]ethyl](methyl)carbamoyl}propan-1-aminium]quinolin-1-ium tetrachloride] | >10 µg/mL |
